According to US20210196711A1, “LYSINE-SPECIFIC HISTONE DEMETHYLASE AS A NOVEL THERAPEUTIC TARGET IN MYELOPROLIFERATIVE NEOPLASMS” (Imago Biosciences, Inc., priority 2015, published 2021):
Counter-ions that a name gives are not always drawn.

Columns and labels:
[1] = tested on: JAK2^V617F knock-in mouse model of myeloproliferative neoplasm (MPN); experiment: JAK2V617F knock-in mouse model of myeloproliferative neoplasm; format: in vivo; conditions: JAK2^V617F mice, 25 mg/kg/day, 56 days, compared to vehicle
Experimental: Compound [IMG 7289; need number or name inserted] was evaluated in the JAK2^V617F knock-in mouse model of myeloproliferative neoplasm (MPN). The procedure of Hasan et al. Blood, 2013, 122, 1464-1477, was followed. (See also Mullally et al. Cancer Cell 2010, 17, 584-596.) Animals bearing the JAK2^V617F were treated with Compound 2 tosylate (25 mg/kg/day) or vehicle for a total of 56 days. Blood samples were taken at the indicated time points and analyzed for hematocrit, white blood cell count (WBC) and platelets as described in Hasan et al. Non-drug-treated animals expressing the JAK2^V617F mutation manifested elevated levels of platelets, WBCs, and hematocrit as compared to wild-type animals.

[2] = primary myelofibrosis patients, 50 to 100 mg/day in combination with prednisone; cited from earlier work

CN1CCN(C(=O)[C@H](CCCN[C@@H]2C[C@H]2c2ccc(F)cc2)NC(=O)c2ccc(-n3ccnn3)cc2)CC1 [Compound 2 tosylate]
hematocrit [1]: reduction
platelet levels [1]: reduction
white blood cell count [1]: reduction

O=C1CCC(N2C(=O)c3ccccc3C2=O)C(=O)N1 (centres unmarked) [Thalidomide]
patients with improved anemia and thrombocytopenia [2]: approximately 60%
patients with reduced spleen size [2]: approximately 20%
